From ChEMBL document CHEMBL1201862, “PubChem BioAssay data set” (2004)
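A five-concentration, 48-hour dose response in 96-well plates underlies each endpoint, interpolated linearly between surrounding concentrations. Here, GI50 denotes the concentration required for 50% inhibition of growth.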 The source made the active and inactive calls. Cut-off read from the data, not from the text of the source: active = GI50 up to about 1.1 µM and inactive = higher.

Assays:
Assay in all cases: DTP human tumour cell line panel, 48 h
MDA-MB-435 = test system: MDA-MB-435
SF-295 = test system: SF-295
SNB-19 = test system: SNB-19
SK-MEL-28 = test system: SK-MEL-28
OVCAR-3 = test system: OVCAR-3
HCC 2998 = test system: HCC 2998
HCT-116 = test system: HCT-116
786-0 = test system: 786-0
PC-3 = test system: PC-3
COLO 205 = test system: COLO 205
HOP-92 = test system: HOP-92
UO-31 = test system: UO-31
SW-620 = test system: SW-620
HT-29 = test system: HT-29
BT-549 = test system: BT-549
IGROV-1 = test system: IGROV-1
Hs-578T = test system: Hs-578T
SR = test system: SR
Malme-3M = test system: Malme-3M

| SMILES | GI50 (MDA-MB-435) | GI50 (SF-295) | GI50 (SNB-19) | GI50 (SK-MEL-28) | GI50 (OVCAR-3) | GI50 (HCC 2998) | GI50 (HCT-116) | GI50 (786-0) | GI50 (PC-3) | GI50 (COLO 205) | GI50 (HOP-92) | GI50 (UO-31) | GI50 (SW-620) | GI50 (HT-29) | GI50 (BT-549) | GI50 (IGROV-1) | GI50 (Hs-578T) | GI50 (SR) | GI50 (Malme-3M) |
| --- | --- | --- | --- | --- | --- | --- | --- | --- | --- | --- | --- | --- | --- | --- | --- | --- | --- | --- | --- |
| O=C(NC1CCCCC1)c1nn[nH]c1Cl | > 100 µM (inactive) | > 100 µM (inactive) | > 100 µM (inactive) | > 100 µM (inactive) | > 100 µM (inactive) | > 100 µM (inactive) | > 100 µM (inactive) | > 100 µM (inactive) | > 100 µM (inactive) | > 100 µM (inactive) | > 100 µM (inactive) | > 100 µM (inactive) | > 100 µM (inactive) | > 100 µM (inactive) | > 100 µM (inactive) | > 100 µM (inactive) | > 100 µM (inactive) | – | – |
| COC(=O)C1(Cc2ccccc2)Cc2ccccc2C1=O (stereo unspecified) | 22.6 µM (inactive) | 66.8 µM (inactive) | – | 65.9 µM (inactive) | 39.3 µM (inactive) | 42.3 µM (inactive) | 36.1 µM (inactive) | 60.5 µM (inactive) | 44.9 µM (inactive) | 49.9 µM (inactive) | 59.2 µM (inactive) | 23.3 µM (inactive) | 55 µM (inactive) | 45.3 µM (inactive) | – | 72.8 µM (inactive) | 61.1 µM (inactive) | 23.8 µM (inactive) | 16.3 µM (inactive) |
| CC1CCCCN1CC(=O)c1ccc2c(c1)Sc1ccccc1O2 (stereo unspecified) | 13.8 µM (inactive) | 16.5 µM (inactive) | 17.9 µM (inactive) | 16.6 µM (inactive) | 14.4 µM (inactive) | 17.7 µM (inactive) | 14.2 µM (inactive) | 14.1 µM (inactive) | 11.8 µM (inactive) | 24 µM (inactive) | 13.2 µM (inactive) | 12.3 µM (inactive) | 19.1 µM (inactive) | 8.61 µM (inactive) | – | 6.49 µM (inactive) | 10.8 µM (inactive) | 15.3 µM (inactive) | 13.5 µM (inactive) |
| CC(=O)OC12c3ccccc3C(c3ccccc31)C1C(=O)N(N=C(C)C)C(=O)C12 (stereo unspecified) | – | > 100 µM (inactive) | > 100 µM (inactive) | > 100 µM (inactive) | > 100 µM (inactive) | > 100 µM (inactive) | > 100 µM (inactive) | > 100 µM (inactive) | > 100 µM (inactive) | > 100 µM (inactive) | – | > 100 µM (inactive) | > 100 µM (inactive) | > 100 µM (inactive) | > 100 µM (inactive) | > 100 µM (inactive) | > 100 µM (inactive) | > 100 µM (inactive) | 63.2 µM (inactive) |
| CC(=O)/C(=C/N1CC(=O)NC1=S)C(=O)Nc1ccccc1C | > 100 µM (inactive) | > 100 µM (inactive) | > 100 µM (inactive) | > 100 µM (inactive) | > 100 µM (inactive) | > 100 µM (inactive) | > 100 µM (inactive) | > 100 µM (inactive) | – | > 100 µM (inactive) | > 100 µM (inactive) | > 100 µM (inactive) | > 100 µM (inactive) | > 100 µM (inactive) | > 100 µM (inactive) | > 100 µM (inactive) | – | – | – |
| CCOc1ccc(/C=C2\NC(=S)N(/C=C3\C(=O)Oc4ccccc4C3=O)C2=O)cc1 | 28.8 µM (inactive) | 20.4 µM (inactive) | 22.8 µM (inactive) | 36.8 µM (inactive) | 21.1 µM (inactive) | 32.1 µM (inactive) | 19.5 µM (inactive) | 19.2 µM (inactive) | 18.1 µM (inactive) | 15.2 µM (inactive) | 22.8 µM (inactive) | 24.1 µM (inactive) | 37.8 µM (inactive) | 32.5 µM (inactive) | 23.6 µM (inactive) | 24.8 µM (inactive) | 23.4 µM (inactive) | – | – |
| Cc1c(O)c(C)c2c(C)cn(C(=O)C(C)(C)C)c2c1C | 16.5 µM (inactive) | 17.8 µM (inactive) | 24.8 µM (inactive) | 15.3 µM (inactive) | 43.4 µM (inactive) | 31.3 µM (inactive) | 21 µM (inactive) | 15.2 µM (inactive) | 21.2 µM (inactive) | 16.6 µM (inactive) | 0.0206 µM (active) | 27.9 µM (inactive) | 29.5 µM (inactive) | 17.3 µM (inactive) | – | 21.6 µM (inactive) | 28.4 µM (inactive) | – | – |
| B.CC(=O)OC1CN2CCC1CC2 (stereo unspecified) | > 100 µM (inactive) | > 100 µM (inactive) | – | > 100 µM (inactive) | > 100 µM (inactive) | > 100 µM (inactive) | > 100 µM (inactive) | > 100 µM (inactive) | > 100 µM (inactive) | – | – | – | > 100 µM (inactive) | > 100 µM (inactive) | – | > 100 µM (inactive) | > 100 µM (inactive) | > 100 µM (inactive) | > 100 µM (inactive) |
